Laboratory results published in patent US11136345B2, “Large scale preparation of pseudo-trisaccharide aminoglycosides and of intermediates thereof” (Eloxx Pharmaceuticals Ltd., priority 2017, dated 2021).

Test system: Rett Syndrome mutation R270X
Experiment: Read-through activity in cell-free assay (firefly/renilla luciferase reporter, in vitro transcription/translation)
Assay type: biochemical, rabbit
Conditions: cell-free dose-response, concentration range 0-12 μM; firefly/renilla expression ratio normalized to WT and non-treated control (FIGS. 6A-B)
Description: The plasmids were transcribed in vitro and translated using rabbit reticulocytes (TNT mix) and then tested for the expression levels of the firefly and renilla luciferases. WT plasmids expressed both firefly and renilla luciferases while mutant plasmids expressed only the renilla luciferase due to the stop codon found in the inserted sequence. The read-through assays were conducted for the tested compounds and the controls by adding the compounds to the in vitro transcription/translation reaction mixture. In case the compounds exerted suppression of the premature nonsense/stop codon mutation, the firefly luciferase was expressed and a fold-change in its expression was observed.
Read-through activity of Rett Syndrome mutation R270X was tested using ELX-02 that was manufactured in Example 1 and 2, and the mutation suppression was calculated based on firefly/renilla expression ratio values, and normalized with respect to the expression level of the WT and the control sample (no tested compound).
FIGS. 6A-B present the results of Rett Syndrome mutation R270X nonsense mutation suppression dose-response cell-free assays conducted for ELX-02 according to embodiments of the present invention, at a concentration rage of 0-12 μM.

C[C@H](N)[C@H]1O[C@@H](OC2C(O)[C@H](N)CC(N)[C@H]2O[C@H]2OC([C@@H](C)O)[C@@H](O)C(O)C2N)C(O)C1O (stereo partly shown) [ELX-02]
read-through of the Rett Syndrome mutation, R270X: dose-dependent increase
